From patent US7105725B2, “Pathogen resistant transgenic plants expressing CEMA or CEMA-related peptides” (University of Victoria Innovation and Development …, priority 1999, dated 2006)

How the values were obtained:
E. coli = experiment: anti-bacterial assay (colony count after 4 h with serially diluted peptide); assay type: cell-based, Escherichia coli DH5α
Procedure: The antibacterial activity of a given CEMA and/or CEMA-related peptide can be assessed conveniently by determining the ability of the peptide to inhibit the growth of a pectinolytic bacterial strain such as Erwinia carotovora or even Escherichia coli DH5α. The activity of a given peptide is determined by serially diluting the peptide in Luria-Bertaini (LB) medium and 100-μL aliquots of the resulting titers into wells of a 96-well microtiter plate. A fresh bacterial culture (˜0.3 A550) is then grown on LB medium (1% w/v tryptone and 0.5% w/v yeast extract) and diluted to 10^−2 in LB to represent approximately 10^4–10^5 colony forming units (CFU)mL^−1. 10 μL of the bacterial culture are then inoculated into each well containing the peptide and the samples are incubated at 37° C. for 4 hours. The well contents are then diluted in LB, plated on LB agar, and incubated overnight at an appropriate temperature. […] The colonies are counted, and the antibacterial activity of the peptide under test is determined by comparison to the control plate.
The CEMA or CEMA-related peptide is determined to have biological activity if, under the conditions of this assay, the peptide is capable of inhibiting bacterial growth by at least 10% (compared to the control) at a concentration of 7 μg per mL (i.e., at this concentration, the number of bacterial colonies is no more than 90% that of the control plate).

[1] = system: susceptible microorganisms; conditions: cited from earlier work

Substance	concentration that kills 50% of bacterial cells (E. coli) [µg/mL]	antimicrobial activity [1]
KWKLFKKIGIGAVLKVLTTGLPALKLTK [CEMA]	4.5	
mellitin		potent antimicrobial activity
